In PMC6193938, “Characterization of a novel AICARFT inhibitor which potently elevates ZMP and has anti-tumor activity in murine models” (Scientific Reports, 2018):
Where two headings read alike, the source gives them in different places.

Tested on: panel of human cell lines
Test: In vitro proliferation assay, Cell Titer Glo, two doubling times, 298 cell lines
Type: cell-based
Settings: read-out: ABS_IC50_VALUE
Source text: Cell Titer Glo measures ATP, thus the IC50s represent both the effect on purine production and cell proliferation, which are related. […] Folates are actively taken up in cells by reduced folate carrier (SLC19A1), proton-coupled folate transporter (SLC46A1), and the FOLR1 folate receptor[17]. Once inside the cell, folates are trapped by polyglutamation catalyzed by folylpolyglutamate synthetase (FPGS). […] Gene expression data for ATIC, GART, APRT, HPRT, FOLR1, SLC19A1, SLC46A1 & FPGS are shown in Fig. 2, since these genes were anticipated to predict sensitivity. […] The MDA-MB-231 cell line is reduced folate carrier (SLC19A1) negative due to epigenetic silencing.
Cells were cultured using recommended culture conditions unless noted otherwise (Supplemental Table 3). Cells were plated, dosed with compound and incubated at 37 °C for approximately 2 doubling times as determined for each cell line. Cell Titer Glo (Promega) assay was used to measure proliferation according to manufacturer’s recommendations by measuring luminescence with Flexstation3 (Molecular Devices) with 500 ms integration time. […] The % response was fit to a four-parameter logistic equation using ACTIVITYBASE 4.0 to determine the absolute IC50 values.
Cell Lines: Cell lines of adrenal gland, autonomic ganglia, biliary tract, blood ALL, blood AML, blood CML, blood hodgkin lymphoma, blood lymphoma, blood multiple myeloma, blood NHL, blood RAEB, bone, breast ER+, breast fibroblast, breast fibroblast mixed, breast HER2, breast normal, breast triple negative, cervix, CNS, endometrium, eye, fibroblast normal, kidney ns, kidney renal, large intestine, liver, liver normal, lung adenocarcinoma, lung ns, lung NSCLC, lung NSCLC mixed, lung SCLC, lung squamous, melanoma, melanoma normal, esophagus adenocarcinoma, esophagus ns, esophagus squamous, ovary, pancreas adenocarcinoma, pancreas ductal carcinoma, pancreas ns, pleura mesothelioma, prostate adenocarcinoma, prostate small cell, salivary gland, small intestine, soft tissue, stomach, testis, thyroid, thyroid squamous, umbilical vein endothelial cell normal, upper aerodigestive tract squamous, urinary tract ns, urinary tract transitional cell carcinoma, and vulva squamous origin were obtained from ATCC, CASTCC, CLS, DSMZ, ECACC, HSRRB, ICLC, JCRB, NCI, Riken and SNU cell banks. The murine A9 cell line was acquired from the ATCC (CCL-1.4).

## O=c1[nH]ccc2cc(F)c(NS(=O)(=O)c3ccc(N4CC[C@@H](O)C4)s3)cc12 [LSN3213128, N-(6-Fluoro-1-oxo-1,2-dihydroisoquinolin-7-yl)-5-[(3R)-3-hydroxypyrrolidin-1-yl]thiophene-2-sulfonamide]
Homo sapiens, 22Rv1, 22RV1, prostate
  IC50: 13.7 µM
Homo sapiens, 769-P, kidney
  IC50: 1.21 µM
Homo sapiens, 5637, urinary tract
  IC50: 2.88 µM
Homo sapiens, 8505C, thyroid
  IC50: > 20 µM
Homo sapiens, A101D, skin
  IC50: 2.22 µM
Homo sapiens, A204, A204, soft tissue
  IC50: > 20 µM
Homo sapiens, A253, A253, salivary gland
  IC50: > 20 µM
Homo sapiens, A498, A498, kidney
  IC50: 12.2 µM
Homo sapiens, A549, A549, lung
  IC50: > 20 µM
Homo sapiens, A2058, A2058, skin
  IC50: > 20 µM
Homo sapiens, A2780, A2780, ovary
  IC50: 3.23 µM
Homo sapiens, ACHN, kidney
  IC50: 1.94 µM
Homo sapiens, AGS, stomach
  IC50: > 20 µM
Homo sapiens, ASPC1, AsPC-1, pancreas
  IC50: > 20 µM
Homo sapiens, AU565, AU565, breast
  IC50: 0.58 µM
Homo sapiens, BCP-1, BCP-1, haematopoietic and lymphoid tissue
  IC50: 11.1 µM
Homo sapiens, BT-20, BT-20, breast
  IC50: > 20 µM
Homo sapiens, BT-474, BT-474, breast
  IC50: > 20 µM
Homo sapiens, BT-483, BT-483, breast
  IC50: > 20 µM
Homo sapiens, BT-549, BT-549, breast
  IC50: > 20 µM
Homo sapiens, BXPC-3, BxPC-3, pancreas
  IC50: 4.49 µM
Homo sapiens, C2BBe1, C2BBe1, large intestine
  IC50: > 20 µM
Homo sapiens, C3A, liver
  IC50: 25.2 µM
Homo sapiens, C32, skin
  IC50: > 20 µM
Homo sapiens, CA46, CA46, haematopoietic and lymphoid tissue
  IC50: > 20 µM
Homo sapiens, CAKI-1, Caki-1, kidney
  IC50: > 20 µM
Homo sapiens, CAKI-2, Caki-2, kidney
  IC50: 5.03 µM
Homo sapiens, CAMA-1, CAMA-1, breast
  IC50: > 20 µM
Homo sapiens, CAPAN-1, CAPAN-1, pancreas
  IC50: > 20 µM
Homo sapiens, CCF-STTG1, CCF-STTG1, central nervous system
  IC50: > 20 µM
Homo sapiens, CFPAC-1, CFPAC-1, pancreas
  IC50: > 20 µM
Homo sapiens, CHL-1, CHL-1, skin
  IC50: > 20 µM
Homo sapiens, CHP-212, CHP-212, autonomic ganglia
  IC50: > 20 µM
Homo sapiens, COLO 205, COLO-205, large intestine
  IC50: 1.68 µM
Homo sapiens, COLO-320-HSR, large intestine
  IC50: 3.3 µM
Homo sapiens, COLO-680N, oesophagus
  IC50: 2.05 µM
Homo sapiens, COLO-741, COLO-741, large intestine
  IC50: 1.58 µM
Homo sapiens, COR-L23, COR-L23, lung
  IC50: 1.4 µM
Homo sapiens, Calu-1, Calu-1, lung
  IC50: > 20 µM
Homo sapiens, Calu-3, Calu-3, lung
  IC50: 2.27 µM
Homo sapiens, Calu-6, Calu-6, lung
  IC50: 11.9 µM
Homo sapiens, Capan-2, Capan-2, pancreas
  IC50: 15.3 µM
Homo sapiens, ChaGo-K-1, ChaGo-K-1, lung
  IC50: > 20 µM
Homo sapiens, D341 Med, central nervous system
  IC50: > 20 µM
Homo sapiens, DB, haematopoietic and lymphoid tissue
  IC50: 10.8 µM
Homo sapiens, DMS-53, DMS-53, lung
  IC50: > 20 µM
Homo sapiens, Daoy, central nervous system
  IC50: 1.02 µM
Homo sapiens, Daudi, haematopoietic and lymphoid tissue
  IC50: 1.1 µM
Homo sapiens, EB1, haematopoietic and lymphoid tissue
  IC50: 1.28 µM
Homo sapiens, EB2, haematopoietic and lymphoid tissue
  IC50: > 20 µM
Homo sapiens, ES-2, ovary
  IC50: > 20 µM
Homo sapiens, F-36P, haematopoietic and lymphoid tissue
  IC50: 0.79 µM
Homo sapiens, G-361, G-361, skin
  IC50: > 20 µM
Homo sapiens, G-401, G-401, kidney
  IC50: > 20 µM
Homo sapiens, G-402, G-402, soft tissue
  IC50: > 20 µM
Homo sapiens, GCT, soft tissue
  IC50: > 20 µM
Homo sapiens, GI-1, central nervous system
  IC50: 15.5 µM
Homo sapiens, GP2d, large intestine
  IC50: 14.3 µM
Homo sapiens, HCC38, HCC38, breast
  IC50: > 20 µM
Homo sapiens, HCC70, HCC70, breast
  IC50: > 20 µM
Homo sapiens, HCC202, HCC202, breast
  IC50: > 20 µM
Homo sapiens, HCC827, HCC827, lung
  IC50: 16 µM
Homo sapiens, HCC1143, HCC1143, breast
  IC50: > 20 µM
Homo sapiens, HCC1187, HCC1187, breast
  IC50: > 20 µM
Homo sapiens, HCC1395, HCC1395, breast
  IC50: > 20 µM
Homo sapiens, HCC1419, HCC1419, breast
  IC50: 10.4 µM
Homo sapiens, HCC1599, HCC1599, breast
  IC50: 3.65 µM
Homo sapiens, HCC1806, HCC1806, breast
  IC50: > 20 µM
Homo sapiens, HCC1937, HCC1937, breast
  IC50: 18.5 µM
Homo sapiens, HCC1954, HCC1954, breast
  IC50: 0.09 µM
Homo sapiens, HCC2218, HCC2218, breast
  IC50: > 20 µM
Homo sapiens, HCT-15, HCT-15, large intestine
  IC50: 3.51 µM
Homo sapiens, HEC-1-A, endometrium
  IC50: 13.6 µM
Homo sapiens, HGC-27, HGC-27, stomach
  IC50: > 20 µM
Homo sapiens, HL-60, HL-60, haematopoietic and lymphoid tissue
  IC50: > 20 µM
Homo sapiens, HLE, liver
  IC50: 15 µM
Homo sapiens, HLF, liver
  IC50: 9.35 µM
Homo sapiens, HMCB, skin
  IC50: 4.45 µM
Homo sapiens, HPAF-II, pancreas
  IC50: 11.1 µM
Homo sapiens, HSC-2, HSC-2, upper aerodigestive tract
  IC50: 1.28 µM
Homo sapiens, HSC-3, HSC-3, upper aerodigestive tract
  IC50: 7.22 µM
Homo sapiens, HSC-4, HSC-4, upper aerodigestive tract
  IC50: 2.95 µM
Homo sapiens, HT1197, HT-1197, urinary tract
  IC50: 0.37 µM
Homo sapiens, HT-29, HT-29, large intestine
  IC50: > 20 µM
Homo sapiens, HT-144, HT-144, skin
  IC50: > 20 µM
Homo sapiens, HT-1080, HT-1080, soft tissue
  IC50: 4 µM
Homo sapiens, HT-1376, HT-1376, urinary tract
  IC50: 0.49 µM
Homo sapiens, Hs 294T, skin
  IC50: > 20 µM
Homo sapiens, Hs 606.T, breast
  IC50: > 20 µM
Homo sapiens, Hs 688(A).T, skin
  IC50: > 20 µM
Homo sapiens, Hs 695T, skin
  IC50: > 20 µM
Homo sapiens, Hs 739.T, breast
  IC50: > 20 µM
Homo sapiens, Hs 839.T, skin
  IC50: > 20 µM
Homo sapiens, Hs 940.T, skin
  IC50: > 20 µM
Homo sapiens, HuCCT-1, HuCCT1, biliary tract
  IC50: 17.1 µM
Homo sapiens, HuG1-N, stomach
  IC50: 2.53 µM
Homo sapiens, HuTu80, HUTU-80, small intestine
  IC50: 0.83 µM
Homo sapiens, Huh-7, HuH-7, liver
  IC50: 12.5 µM
Homo sapiens, IA-LM, lung
  IC50: > 20 µM
Homo sapiens, J82, urinary tract
  IC50: > 20 µM
Homo sapiens, JHH7, JHH-7, liver
  IC50: 28.3 µM
Homo sapiens, K562, K-562, haematopoietic and lymphoid tissue
  IC50: 0.67 µM
Homo sapiens, KALS-1, KALS-1, central nervous system
  IC50: > 20 µM
Homo sapiens, KE-97, KE-97, stomach
  IC50: 1.09 µM
Homo sapiens, KG-1, haematopoietic and lymphoid tissue
  IC50: > 20 µM
Homo sapiens, KLE, endometrium
  IC50: > 20 µM
Homo sapiens, KM12, KM12, large intestine
  IC50: 2.05 µM
Homo sapiens, KNS-42, KNS-42, central nervous system
  IC50: > 20 µM
Homo sapiens, KNS-62, KNS-62, lung
  IC50: 16 µM
Homo sapiens, KNS-81, central nervous system
  IC50: > 20 µM
Homo sapiens, KP-4, pancreas
  IC50: 0.74 µM
Homo sapiens, KU812, KU812, haematopoietic and lymphoid tissue
  IC50: 0.08 µM
Homo sapiens, KYSE-410, KYSE-410, oesophagus
  IC50: 1.56 µM
Homo sapiens, Kasumi-6, haematopoietic and lymphoid tissue
  IC50: > 20 µM
Homo sapiens, LOUCY, haematopoietic and lymphoid tissue
  IC50: 1.76 µM
Homo sapiens, LUDLU-1, LUDLU-1, lung
  IC50: > 20 µM
Homo sapiens, MCF7, MCF7, breast
  IC50: 11.1 µM
Homo sapiens, MDA-MB-157, MDA-MB-157, breast
  IC50: > 20 µM
Homo sapiens, MDA-MB-415, MDA-MB-415, breast
  IC50: > 20 µM
Homo sapiens, MDA-MB-436, MDA-MB-436, breast
  IC50: > 20 µM
Homo sapiens, MDA-MB-453, MDA-MB-453, breast
  IC50: > 20 µM
Homo sapiens, MDA-MB-468, MDA-MB-468, breast
  IC50: 0.44 µM
Homo sapiens, MEG-01, MEG-01, haematopoietic and lymphoid tissue
  IC50: 0.29 µM
Homo sapiens, MG-63, MG-63, bone
  IC50: > 20 µM
Homo sapiens, MKN-1, MKN1, stomach
  IC50: > 20 µM
Homo sapiens, MKN-45, MKN45, stomach
  IC50: > 20 µM
Homo sapiens, MKN-74, MKN74, stomach
  IC50: > 20 µM
Homo sapiens, MOLT-4, MOLT-4, haematopoietic and lymphoid tissue
  IC50: 1.11 µM
Homo sapiens, MSTO-211H, pleura
  IC50: > 20 µM
Homo sapiens, Malme-3M, skin
  IC50: > 20 µM
Homo sapiens, NCI-H23, NCI-H23, lung
  IC50: 14.4 µM
Homo sapiens, NCI-H28, NCI-H28, pleura
  IC50: > 20 µM
Homo sapiens, NCI-H69, NCI-H69, lung
  IC50: 18.5 µM
Homo sapiens, NCI-H82, NCI-H82, lung
  IC50: 2.28 µM
Homo sapiens, NCI-H209, NCI-H209, lung
  IC50: 5.55 µM
Homo sapiens, NCI-H226, NCI-H226, lung
  IC50: 4.52 µM
Homo sapiens, NCI-H358, NCI-H358, lung
  IC50: 6.06 µM
Homo sapiens, NCI-H441, NCI-H441, lung
  IC50: > 20 µM
Homo sapiens, NCI-H446, NCI-H446, lung
  IC50: 1.68 µM
Homo sapiens, NCI-H460, NCI-H460, lung
  IC50: 0.97 µM
Homo sapiens, NCI-H508, NCI-H508, large intestine
  IC50: 13.1 µM
Homo sapiens, NCI-H520, NCI-H520, lung
  IC50: 9.66 µM
Homo sapiens, NCI-H522, NCI-H522, lung
  IC50: 9.92 µM
Homo sapiens, NCI-H524, NCI-H524, lung
  IC50: 11.3 µM
Homo sapiens, NCI-H596, NCI-H596, lung
  IC50: > 20 µM
Homo sapiens, NCI-H647, NCI-H647, lung
  IC50: 1.4 µM
Homo sapiens, NCI-H650, NCI-H650, lung
  IC50: 8.6 µM
Homo sapiens, NCI-H660, NCI-H660, prostate
  IC50: 7.16 µM
